What was measured:
Assay in all cases: MIC, liquid medium test tube series dilution test
Proteus vulg. 1017 = format: cell-based, Proteus vulgaris; details: Proteus vulg. 1017, 24 hours, 37°C
Procedure, shortened: (§1)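 Read-out: visual turbidity after 24 h at 37°C. The MIC, in units/ml, corresponds to the non-turbid tube in a liquid-medium test tube dilution series prepared in complete nutrient medium.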

E. coli C 165 = format: cell-based; details: E. coli C 165, 24 hours, 37°C
Procedure, shortened: as §1

Klebsiella 63 = format: cell-based; details: Klebsiella 63, 24 hours, 37°C
Procedure, shortened: as §1

Psdm. aerug. Walter = format: cell-based, Pseudomonas aerug.; details: 24 hours, 37°C
Procedure, shortened: as §1

Staph. aureus 133 = format: cell-based, Staphylococcus aureus; details: Staph. aureus 133, 24 hours, 37°C
Procedure, shortened: as §1

Staph. aureus 1777 E = format: cell-based, Staphylococcus aureus; details: 24 hours, 37°C
Procedure, shortened: as §1

Proteus vulg. 3400 = format: cell-based, Proteus vulgaris; details: Proteus vulg. 3400, 24 hours, 37°C
Procedure, shortened: as §1

E. coli A 261 = format: cell-based; details: E. coli A 261, 24 hours, 37°C
Procedure, shortened: as §1

E. coli 183/58 = format: cell-based; details: E. coli 183/58, 24 hours, 37°C
Procedure, shortened: as §1

[1] = test system: Streptoc. faec. ATCC 9790; format: cell-based; details: Strep. faec. (Enterococcus) ATCC 9790, 24 hours, 37°C
Procedure, shortened: as §1

Klebsiella K 10 = format: cell-based; details: Klebsiella K 10, 24 hours, 37°C
Procedure, shortened: as §1

E. coli 14 = format: cell-based; details: E. coli 14, 24 hours, 37°C
Procedure, shortened: as §1

Psdm. aerug. Bonn = format: cell-based, Pseudomonas aerug.; details: 24 hours, 37°C
Procedure, shortened: as §1

Row | MIC (Proteus vulg. 1017) | MIC (E. coli C 165) | MIC (Klebsiella 63) | MIC (Psdm. aerug. Walter) | MIC (Staph. aureus 133) | MIC (Staph. aureus 1777 E) | MIC (Proteus vulg. 3400) | MIC (E. coli A 261) | MIC (E. coli 183/58) | MIC [1] | MIC (Klebsiella K 10) | MIC (E. coli 14) | MIC (Psdm. aerug. Bonn) | Compound
1 | 4-20 units/ml | 4-20 units/ml | 20-100 units/ml | ~20 units/ml | 0.8 units/ml | 100-500 units/ml | – | – | – | – | – | – | – | CC(C)C(=O)N(C)C(=O)N[C@@H](C(=O)N[C@@H]1C(=O)N2[C@@H]1SC(C)(C)[C@@H]2C(=O)O)c1ccccc1 [Example 116, Sodium D(-)-α-(3-i-butyryl-3-methyl-ureido)-benzylpenicillin]
2 | 20-100 units/ml | 4-20 units/ml | 100-500 units/ml | 4-20 units/ml | 0.8 units/ml | 100-500 units/ml | – | – | – | – | – | – | – | CCN(C(C)=O)C(=O)N[C@@H](C(=O)N[C@@H]1C(=O)N2[C@@H]1SC(C)(C)[C@@H]2C(=O)O)c1ccccc1 [Example 114, Sodium D(-)-α-(3-acetyl-3-ethyl-ureido)-benzylpenicillin]
3 | 100 units/ml | 12.5 units/ml | 50 units/ml | 100 units/ml | ~ 0.8 units/ml | – | 25 units/ml | 400 units/ml | 12.5 units/ml | 200 units/ml | 50 units/ml | 3.1 units/ml | 100 units/ml | CN(C(=O)CCCCl)C(=O)N[C@@H](C(=O)N[C@@H]1C(=O)N2[C@@H]1SC(C)(C)[C@@H]2C(=O)O)c1ccccc1 [Example 2, Sodium D(-)-α-(3-γ-chlorobutyryl-3-methyl-ureido)-benzylpenicillin]
4 | 100-500 units/ml | 100-500 units/ml | 100-500 units/ml | 100-500 units/ml | 0.8-4 units/ml | – | 100-500 units/ml | > 500 units/ml | 20-100 units/ml | > 500 units/ml | 100-500 units/ml | 20-100 units/ml | approx. 500 units/ml | CN(C(=O)NC(C(=O)N[C@@H]1C(=O)N2[C@@H]1SC(C)(C)[C@@H]2C(=O)O)c1c(Cl)cccc1Cl)C(=O)c1ccccc1 (stereo partly drawn) [Example 31, Sodium α-(3-benzoyl-3-methyl-ureido)-2,6-dichlorobenzyl-penicillin]
5 | 3.12 units/ml | 6.25 units/ml | 12.5 units/ml | 50 units/ml | < 0.78 units/ml | – | 12.5 units/ml | 400 units/ml | 1.56 units/ml | 100 units/ml | 25 units/ml | 1.56 units/ml | 25 units/ml | CN(C(=O)CCC(Cl)(Cl)Cl)C(=O)N[C@@H](C(=O)N[C@@H]1C(=O)N2[C@@H]1SC(C)(C)[C@@H]2C(=O)O)c1ccccc1 [Example 89, Sodium (-)-α-(3-γ-trichlorobutyryl-3-methyl-ureido)-benzylpenicillin]
6 | 20-100 units/ml | 4-20 units/ml | 20-100 units/ml | 20-100 units/ml | < 0.8 units/ml | – | 20-100 units/ml | > 500 units/ml | 4-20 units/ml | 100-500 units/ml | 20-100 units/ml | 0.8-4 units/ml | 20-100 units/ml | Cc1noc(C)c1C(=O)N(C)C(=O)N[C@@H](C(=O)N[C@@H]1C(=O)N2[C@@H]1SC(C)(C)[C@@H]2C(=O)O)c1ccccc1 [Example 38]
7 | 200 units/ml | 50 units/ml | 100 units/ml | 200 units/ml | < 0.8 units/ml | – | 400 units/ml | > 400 units/ml | 50 units/ml | 100 units/ml | 50 units/ml | 12.5 units/ml | 200 units/ml | CCC(=O)N(C(=O)N[C@@H](C(=O)N[C@@H]1C(=O)N2[C@@H]1SC(C)(C)[C@@H]2C(=O)O)c1ccccc1)c1ccccc1 [Example 143, Sodium D(-)-α-(3-propionyl-3-phenyl-ureido)-benzylpenicillin]
8 | 100-500 units/ml | 20-100 units/ml | 20-100 units/ml | 100-500 units/ml | 0.8-4 units/ml | – | ~ 100 units/ml | > 500 units/ml | 20-100 units/ml | 100-500 units/ml | 20-100 units/ml | 4-20 units/ml | 100-500 units/ml | C=CCN(C(=O)NC(C(=O)N[C@@H]1C(=O)N2[C@@H]1SC(C)(C)[C@@H]2C(=O)O)c1ccc(OC)cc1)C(=O)c1ccccc1 (stereo partly drawn) [Example 14, Sodium D,L-α-(3-benzoyl-3-allyl-ureido)-4-methoxybenzylpenicillin]
9 | > 400 units/ml | > 400 units/ml | > 400 units/ml | 400 units/ml | 200 units/ml | – | > 400 units/ml | > 400 units/ml | > 400 units/ml | > 400 units/ml | > 400 units/ml | > 400 units/ml | > 400 units/ml | CCCCCCCCCCCCCCCCCC(=O)N(C)C(=O)N[C@@H](C(=O)N[C@@H]1C(=O)N2[C@@H]1SC(C)(C)[C@@H]2C(=O)O)c1ccccc1 [Example 71, Sodium D(-)-α-(3-stearinoyl-3-methyl-ureido)-benzylpenicillin]
10 | 12.5 units/ml | 6.25 units/ml | 12.5 units/ml | 100 units/ml | < 0.78 units/ml | – | 12.5 units/ml | 200 units/ml | 3.12 units/ml | 100 units/ml | 25 units/ml | 3.12 units/ml | 12.5 units/ml | Cc1ccc(C(=O)N(C)C(=O)N[C@@H](C(=O)N[C@@H]2C(=O)N3[C@@H]2SC(C)(C)[C@@H]3C(=O)O)c2ccccc2)cc1[N+](=O)[O-] [Example 70, Sodium D(-)-α-(3-[m-nitro-p-methyl]-benzoyl-3-methyl-ureido)-benzylpenicillin]
11 | 20-100 units/ml | 20-100 units/ml | 20-100 units/ml | approx. 20 units/ml | < 0.8 units/ml | – | 20-100 units/ml | 100-500 units/ml | 4-20 units/ml | 20-100 units/ml | 20-100 units/ml | approx. 4 units/ml | 4-20 units/ml | CCOC(=O)N(C)C(=O)NC(C(=O)N[C@@H]1C(=O)N2[C@@H]1SC(C)(C)[C@@H]2C(=O)O)c1ccc(SC)cc1 (stereo partly drawn) [Example 35, Sodium α-(3-ethoxycarbonyl-3-methyl-ureido)-4-methylthiobenzylpenicillin]
12 | 4-20 units/ml | 0.8-4 units/ml | 100-500 units/ml | 4-20 units/ml | 0.8 units/ml | 100-500 units/ml | – | – | – | – | – | – | – | CCC(=O)N(C)C(=O)N[C@@H](C(=O)N[C@@H]1C(=O)N2[C@@H]1SC(C)(C)[C@@H]2C(=O)O)c1ccccc1 [Example 113, Sodium D(-)-α-(3-propionyl-3-methyl-ureido)-benzylpenicillin]
13 | 20-100 units/ml | 20-100 units/ml | 100-500 units/ml | 20-100 units/ml | 0.8 units/ml | 100-500 units/ml | – | – | – | – | – | – | – | CCCN(C(C)=O)C(=O)N[C@@H](C(=O)N[C@@H]1C(=O)N2[C@@H]1SC(C)(C)[C@@H]2C(=O)O)c1ccccc1 [Example 115, Sodium D(-)-α-(3-acetyl-3-n-propyl-ureido)-benzylpenicillin]

Row | Compound | MIC (Proteus vulg. 1017) | MIC (E. coli C 165) | MIC (Klebsiella 63) | MIC (Psdm. aerug. Walter) | MIC (Staph. aureus 133) | MIC (Staph. aureus 1777 E) | MIC (Proteus vulg. 3400) | MIC (E. coli A 261) | MIC (E. coli 183/58) | MIC [1] | MIC (Klebsiella K 10) | MIC (E. coli 14) | MIC (Psdm. aerug. Bonn)
14 | C=CCN(C(C)=O)C(=O)N[C@@H](C(=O)N[C@@H]1C(=O)N2[C@@H]1SC(C)(C)[C@@H]2C(=O)O)c1ccccc1 [Example 1, Sodium D(-)-α-(3-acetyl-3-allylureido)-benzylpenicillin] | 400 units/ml | 100 units/ml | 50 units/ml | 200 units/ml | 1.6 units/ml | – | 200 units/ml | > 400 units/ml | 100 units/ml | 200 units/ml | 50 units/ml | 25 units/ml | 400 units/ml
